# According to PMC6152131, “Pharmacokinetic Study of Biotransformation Products from an Anxiolytic Fraction of Tilia americana” (Molecules : A Journal of Synthetic Chemistry and Natural …, 2017):
# Columns and labels:
# [1] = Plasma concentration after a single oral dose of the anxiolytic fraction (HPLC); format: in vivo, ICR mice; conditions: mouse, plasma, ICR mice, n = 10
# Method in brief: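 Animals dosed orally with 200 mg/kg of active fraction; retro-orbital blood taken from separate groups of ten at 0–1440 min. Lyophilized plasma extracted in methanol and analysed by RP-18 HPLC with diode-array detection at 220 nm against a calibration curve; PK parameters from observed data, mean ± SD.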
# [2] = Pharmacokinetic analysis, two-compartment model (PKSolver); format: in vivo, ICR mice; conditions: two-compartment model
# Method: The data shown in Table 2 were applied to the program PKSolver. After a single oral administration of 200 mg/kg of the anxiolitic fraction of T. americana, the behavior of the concentration-time data allowed us to determine the main pharmacokinetic parameters under a two-compartment model (Table 3), and the same program provided the graphical behavior of the variables and the adjustment to the two-compartment model.
# To evaluate the suitability of the assay for the pharmacokinetic studies, 200 mg/kg of the active fraction was orally administered to the animals. Ten animals were used in each group at different times (0, 5, 10, 15, 30, 60, 120, 240, 480, 720, and 1440 min). Pharmacokinetic calculations were performed using the observed data. All data was subsequently processed using the PKSolver add-in program for Microsoft Excel written in Visual Basic for Applications. All values obtained were expressed in mean ± standard deviation.
# For the pharmacokinetic assay, the selection was made either from a one-compartment or a two-compartment model, with the use of both the Akaike information criterion (AIC) and the Schwarz criterion (SC). Using these two criteria, one can select which model is more suited to being adjusted, to the point where it reaches the lowest values of the AIC or SC criteria, which means that the chosen model is more parsimonious (less parameters required) and best fits the data (low error prediction).
# [3] = Stability of flavonoids and biotransformation products in mouse plasma under different handling conditions; format: in vitro ADME, mice; conditions: for Accuracy Bias 0 h / Observed Conc. 0 h / Accuracy Bias 8 h / Observed Conc. 8 h / Accuracy Bias 24 h / Observed Conc. 24 h: room temperature (25 °C); for Observed Conc. 0 h / Observed Conc. 8 h / Observed Conc. 24 h / Observed Conc. Autosampler (4 °C; 8 h) / Observed Conc. Long-term (−70 °C; 1 month): n = 6; for Accuracy Bias Autosampler (4 °C; 8 h) / Accuracy Bias Long-term (−70°C; 1 month) / Observed Conc. Autosampler (4 °C; 8 h) / Observed Conc. Long-term (−70 °C; 1 month): storage stability
# Method in brief: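 Mouse plasma QC samples containing the flavonoids and their biotransformation products were tested for stability across storage and handling conditions, including long-term, autosampler and bench-top tests. Samples were extracted with methanol, filtered, and analyzed by HPLC on an RP-18e column with acetonitrile–water (55:45) at 1 mL/min and detection at λ = 220 nm. Results were compared against fresh QC samples; stability required deviation below 15%.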
# [4] = mouse, oral 200 mg/kg anxiolytic fraction, ICR mice plasma
# [5] = oral 200 mg/kg anxiolytic fraction, ICR mice plasma
# [6] = oral 200 mg/kg anxiolytic fraction, ICR mice plasma, n = 10
# [7] = high nominal conc. (7.00; 44.37; 4.50; 31.25 µg/mL)
# [8] = low nominal conc. (1.75; 11.02; 1.12; 1.95 µg/mL)
# [9] = medium nominal conc. (3.50; 22.18; 2.24; 7.81 µg/mL)
structure (smiles),measurement,setting,value
"O=C(O)Cc1ccc(O)cc1 [p-HPAA, para-hydroxyphenylacetic acid]",concentration at 5 min,"[1]; 5 min after single oral dose of 200 mg/kg of the anxiolytic fraction, ND = not detected",5400 ± 360 ng/mL
same,concentration at 10 min,[1]; 10 min after single oral dose of 200 mg/kg of the anxiolytic fraction,6710 ± 440 ng/mL
same,concentration at 15 min,[1]; 15 min after single oral dose of 200 mg/kg of the anxiolytic fraction,6010 ± 330 ng/mL
same,concentration at 30 min,[1]; 30 min after single oral dose of 200 mg/kg of the anxiolytic fraction,5380 ± 510 ng/mL
same,concentration at 60 min,[1]; 60 min after single oral dose of 200 mg/kg of the anxiolytic fraction,5310 ± 540 ng/mL
same,concentration at 120 min,[1]; 120 min after single oral dose of 200 mg/kg of the anxiolytic fraction,5290 ± 320 ng/mL
same,concentration at 240 min,[1]; 240 min after single oral dose of 200 mg/kg of the anxiolytic fraction,5150 ± 230 ng/mL
same,concentration at 480 min,[1]; 480 min after single oral dose of 200 mg/kg of the anxiolytic fraction,5080 ± 240 ng/mL
same,concentration at 720 min,[1]; 720 min after single oral dose of 200 mg/kg of the anxiolytic fraction,4990 ± 350 ng/mL
same,concentration at 1440 min,[1]; 1440 min after single oral dose of 200 mg/kg of the anxiolytic fraction,4910 ± 210 ng/mL
same,AUC(0-inf),[2]; [4],183 µg·h/mL
same,Cmax,[2]; [4],6260 ng/mL
same,Tmax,[2]; [4],0.186 h
same,AUC(0-t),"[2]; mouse, oral 200 mg/kg anxiolytic fraction, ICR mice plasma, read-out: AUC0→1440 (converted)",73.7 µg·h/mL
same,MRT,"[2]; mouse, oral 200 mg/kg anxiolytic fraction, ICR mice plasma, read-out: MRT (mean residence time) (converted)",47.2 h
same,k el,"[2]; mouse, oral 200 mg/kg anxiolytic fraction, ICR mice plasma, read-out: k10 (apparent first-order elimination rate constant from the central compartment) (converted)",1e-05 s⁻¹
same,half-life,"[2]; mouse, oral 200 mg/kg anxiolytic fraction, ICR mice plasma, read-out: t1/2β",33.2 h
same,CL/F (apparent clearance),[2]; [5],0.018 (mg/Kg)/(μg/mL)/min
same,V/F (apparent volume of distribution),[2]; [5],29.46 (mg/Kg)/(µg/mL)
same,k12 (transfer rate constant central to peripheral compartment),[2]; [5],0.007 min⁻¹
same,k21 (transfer rate constant peripheral to central compartment),[2]; [5],0.009 min⁻¹
same,ka (apparent first-order absorption rate constant),[2]; [5],0.36 min⁻¹
same,t1/2ka (absorption half time),[2]; [5],1.92 min
same,t1/2α,[2]; [5],0.7042 h
same,α,[2]; [5],0.02 min⁻¹
same,β,[2]; [5],0.0003 min⁻¹
same,"A (plasma concentration coefficient, central compartment)",[2]; [6],3.19 µg/mL
same,"B (plasma concentration coefficient, peripheral compartment)",[2]; [6],3.75 µg/mL
same,index: relation between rate constants of k12 with respect to k21,[2],0.77
same,Accuracy Bias 0 h,[3]; high nominal conc.,1.64%
same,Observed Conc. 0 h,"[3]; high nominal conc. (rutin 7.00; quercetin glucoside, quercitrin, tiliroside 44.37; kaempferol 4.50; m-HPAA, p-HPAA, DOPAC 31.25 µg/mL)",31.76 ± 0.28 µg/mL
same,Accuracy Bias 0 h,[3]; low nominal conc.,1.44%
same,Observed Conc. 0 h,"[3]; low nominal conc. (rutin 1.75; quercetin glucoside, quercitrin, tiliroside 11.02; kaempferol 1.12; m-HPAA, p-HPAA, DOPAC 1.95 µg/mL)",1.92 ± 0.02 µg/mL
same,Accuracy Bias 0 h,[3]; medium nominal conc.,0.65%
same,Observed Conc. 0 h,"[3]; medium nominal conc. (rutin 3.50; quercetin glucoside, quercitrin, tiliroside 22.18; kaempferol 2.24; m-HPAA, p-HPAA, DOPAC 7.81 µg/mL)",7.86 ± 0.11 µg/mL
same,Accuracy Bias 8 h,[3]; high nominal conc.,1.26%
same,Observed Conc. 8 h,[3]; [7],31.64 ± 0.28 µg/mL
same,Accuracy Bias 8 h,[3]; low nominal conc.,1.40%
same,Observed Conc. 8 h,[3]; [8],1.92 ± 0.02 µg/mL
same,Accuracy Bias 8 h,[3]; medium nominal conc.,2.05%
same,Observed Conc. 8 h,[3]; [9],7.94 ± 0.11 µg/mL
same,Accuracy Bias 24 h,[3]; high nominal conc.,1.26%
same,Observed Conc. 24 h,[3]; [7],31.64 ± 0.31 µg/mL
same,Accuracy Bias 24 h,[3]; low nominal conc.,0.85%
same,Observed Conc. 24 h,[3]; [8],1.93 ± 0.01 µg/mL
same,Accuracy Bias 24 h,[3]; medium nominal conc.,1.01%
same,Observed Conc. 24 h,[3]; [9],7.89 ± 0.05 µg/mL
same,Accuracy Bias Autosampler (4 °C; 8 h),[3]; high nominal conc.,1.40%
same,Accuracy Bias Long-term (−70°C; 1 month),[3]; high nominal conc.,0.85%
same,Observed Conc. Autosampler (4 °C; 8 h),[3]; [7],31.64 ± 0.28 µg/mL
same,Observed Conc. Long-term (−70 °C; 1 month),[3]; [7],31.64 ± 0.28 µg/mL
same,Accuracy Bias Autosampler (4 °C; 8 h),[3]; low nominal conc.,1.26%
same,Accuracy Bias Long-term (−70°C; 1 month),[3]; low nominal conc.,1.26%
same,Observed Conc. Autosampler (4 °C; 8 h),[3]; [8],1.93 ± 0.02 µg/mL
same,Observed Conc. Long-term (−70 °C; 1 month),[3]; [8],1.92 ± 0.01 µg/mL
same,Accuracy Bias Autosampler (4 °C; 8 h),[3]; medium nominal conc.,2.05%
same,Accuracy Bias Long-term (−70°C; 1 month),[3]; medium nominal conc.,1.01%
same,Observed Conc. Autosampler (4 °C; 8 h),[3]; [9],7.89 ± 0.11 µg/mL
same,Observed Conc. Long-term (−70 °C; 1 month),[3]; [9],7.97 ± 0.05 µg/mL
